Laboratory results taken from ChEMBL document CHEMBL1201861, “Genomics of Drug Sensitity in Cancer screening data, Wellcome Trust Sanger Institute”.

What was measured:
ChaGo-K-1 = test: cells; type: functional, cell-based; settings: Homo sapiens;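 note: growth inhibition of ChaGo-K-1 cells, read out with a cell viability assay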
Description: SANGER: Inhibition of human ChaGo-K-1 cell growth in a cell viability assay.

Detroit 562 = test: cells; type: functional, cell-based; settings: Homo sapiens;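 note: growth inhibition of human Detroit 562 cells, read out by a cell viability assay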
Description: SANGER: Inhibition of human Detroit562 cell growth in a cell viability assay.

EFM-19 = test: cells; type: functional, cell-based; settings: Homo sapiens;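 note: growth inhibition of human EFM-19 cells, measured in a cell viability assay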
Description: SANGER: Inhibition of human EFM-19 cell growth in a cell viability assay.

FTC-133 = test: cells; type: functional, cell-based; settings: Homo sapiens
G-401 = test: cells; type: functional, cell-based; settings: Homo sapiens
Description: SANGER: Inhibition of human G-401 cell growth in a cell viability assay.

GAMG = test: cells; type: functional, cell-based; settings: Homo sapiens;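 note: cell growth inhibition measured by a viability assay in the GAMG human cell line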
Description: SANGER: Inhibition of human GAMG cell growth in a cell viability assay.

HCC1937 = test: cells; type: functional, cell-based; settings: Homo sapiens;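 note: growth inhibition measured with a cell viability read-out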
Description: SANGER: Inhibition of human HCC1937 cell growth in a cell viability assay.

HMV-2 cell line = test: cells; type: functional, cell-based; settings: Homo sapiens;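 note: growth inhibition of HMV-II cells, read out with a cell viability assay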
Description: SANGER: Inhibition of human HMV-II cell growth in a cell viability assay.

HN = test: cells; type: functional, cell-based; settings: Homo sapiens
Description: SANGER: Inhibition of human HN cell growth in a cell viability assay.

HOS = test: cells; type: functional, cell-based; settings: Homo sapiens;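 note: growth inhibition of human HOS cells, read out with a cell viability assay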
Description: SANGER: Inhibition of human HOS cell growth in a cell viability assay.

HTC-C3 = test: cells; type: functional, cell-based; settings: Homo sapiens;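 note: inhibition of cell growth, read out with a cell viability assay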
Description: SANGER: Inhibition of human HTC-C3 cell growth in a cell viability assay.

IGROV-1 = test: cells; type: functional, cell-based; settings: Homo sapiens;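 note: reduction of IGROV-1 cell growth, read out with a viability assay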
Description: SANGER: Inhibition of human IGROV-1 cell growth in a cell viability assay.

JEG-3 = test: cells; type: functional, cell-based; settings: Homo sapiens;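 note: growth inhibition of human JEG-3 cells, read out with a cell viability assay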
Description: SANGER: Inhibition of human JEG-3 cell growth in a cell viability assay.

KP-4 = test: cells; type: functional, cell-based; settings: Homo sapiens;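 note: human KP-4 cells, with growth inhibition read out through a cell viability assay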
Description: SANGER: Inhibition of human KP-4 cell growth in a cell viability assay.

KYSE-150 cell line = test: cells; type: functional, cell-based; settings: Homo sapiens;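 note: growth inhibition of human KYSE-150 cells, read out with a cell viability assay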
Description: SANGER: Inhibition of human KYSE-150 cell growth in a cell viability assay.

KYSE-180 = test: cells; type: functional, cell-based; settings: Homo sapiens;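 note: growth inhibition of KYSE-180 cells, read out with a cell viability assay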
Description: SANGER: Inhibition of human KYSE-180 cell growth in a cell viability assay.

MDA-MB-453 = test: cells; type: functional, cell-based; settings: Homo sapiens
Description: SANGER: Inhibition of human MDA-MB-453 cell growth in a cell viability assay.

MFE-280 = test: cells; type: functional, cell-based; settings: Homo sapiens;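 note: growth inhibition of MFE-280 cells, determined with a cell viability readout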
Description: SANGER: Inhibition of human MFE-280 cell growth in a cell viability assay.

MHH-ES-1 = test: cells; type: functional, cell-based; settings: Homo sapiens
Description: SANGER: Inhibition of human MHH-ES-1 cell growth in a cell viability assay.

MKN-28 = test: cells; type: functional, cell-based; settings: Homo sapiens;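 note: cell viability assay read-out, IC50 reflects suppression of growth of human MKN-28 cells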
Description: SANGER: Inhibition of human MKN28 cell growth in a cell viability assay.

NCI-H1437 = test: cells; type: functional, cell-based; settings: Homo sapiens;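 note: growth inhibition of human NCI-H1437 cells, read out by a cell viability assay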
Description: SANGER: Inhibition of human NCI-H1437 cell growth in a cell viability assay.

NCI-H1755 = test: cells; type: functional, cell-based; settings: Homo sapiens;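 note: cell viability readout used to measure growth inhibition of NCI-H1755 cells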
Description: SANGER: Inhibition of human NCI-H1755 cell growth in a cell viability assay.

NCI-H1793 = test: cells; type: functional, cell-based; settings: Homo sapiens;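 note: cell growth inhibition, read out by a cell viability assay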
Description: SANGER: Inhibition of human NCI-H1793 cell growth in a cell viability assay.

NCI-H2030 = test: cells; type: functional, cell-based; settings: Homo sapiens;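 note: growth inhibition of human NCI-H2030 cells, read out by a cell viability assay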
Description: SANGER: Inhibition of human NCI-H2030 cell growth in a cell viability assay.

NCI-H358 = test: cells; type: functional, cell-based; settings: Homo sapiens;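 note: growth inhibition of NCI-H358 human cells, read out with a cell viability assay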
Description: SANGER: Inhibition of human NCI-H358 cell growth in a cell viability assay.

NCI-H520 = test: cells; type: functional, cell-based; settings: Homo sapiens;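 note: growth inhibition of NCI-H520 cells, measured by a cell viability assay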
Description: SANGER: Inhibition of human NCI-H520 cell growth in a cell viability assay.

NCI-H522 = test: cells; type: functional, cell-based; settings: Homo sapiens;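 note: cell viability assay measuring growth inhibition of human NCI-H522 cells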
Description: SANGER: Inhibition of human NCI-H522 cell growth in a cell viability assay.

NCI-H630 = test: cells; type: functional, cell-based; settings: Homo sapiens;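 note: growth inhibition of NCI-H630 cells, read out with a cell viability assay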
Description: SANGER: Inhibition of human NCI-H630 cell growth in a cell viability assay.

NCI-H727 = test: cells; type: functional, cell-based; settings: Homo sapiens;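 note: growth inhibition of human NCI-H727 cells, read out with a cell viability assay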
Description: SANGER: Inhibition of human NCI-H727 cell growth in a cell viability assay.

NUGC-3 = test: cells; type: functional, cell-based; settings: Homo sapiens;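 note: growth inhibition of human NUGC-3 cells, read out with a cell viability assay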
Description: SANGER: Inhibition of human NUGC-3 cell growth in a cell viability assay.

PC-3 = test: cells; type: functional, cell-based; settings: Homo sapiens;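 note: cell viability assay measuring growth inhibition of PC-3 cells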
Description: SANGER: Inhibition of human PC-3 cell growth in a cell viability assay.

SBC-5 = test: cells; type: functional, cell-based; settings: Homo sapiens;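 note: cell viability assay read-out, IC50 is the concentration that inhibits growth of the cells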
Description: SANGER: Inhibition of human SBC-5 cell growth in a cell viability assay.

SCC-25 = test: cells; type: functional, cell-based; settings: Homo sapiens;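 note: growth inhibition of SCC-25 cells, measured with a cell viability assay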
Description: SANGER: Inhibition of human SCC-25 cell growth in a cell viability assay.

SKG-IIIa = test: cells; type: functional, cell-based; settings: Homo sapiens;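 note: cell growth inhibition, read out with a cell viability assay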
Description: SANGER: Inhibition of human SKG-IIIa cell growth in a cell viability assay.

SW1463 = test: cells; type: functional, cell-based; settings: Homo sapiens;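 note: growth inhibition of SW1463 cells, determined with a cell viability assay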
Description: SANGER: Inhibition of human SW1463 cell growth in a cell viability assay.

SW1573 = test: cells; type: functional, cell-based; settings: Homo sapiens;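 note: growth inhibition of SW1573 cells, read out with a cell viability assay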
Description: SANGER: Inhibition of human SW1573 cell growth in a cell viability assay.

SW756 = test: cells; type: functional, cell-based; settings: Homo sapiens;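 note: growth inhibition of human SW756 cells, read out with a cell viability assay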
Description: SANGER: Inhibition of human SW756 cell growth in a cell viability assay.

SW837 = test: cells; type: functional, cell-based; settings: Homo sapiens;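 note: growth inhibition of SW837 cells, determined with a cell viability assay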
Description: SANGER: Inhibition of human SW837 cell growth in a cell viability assay.

SAOS-2 = test: cells; type: functional, cell-based; settings: Homo sapiens;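 note: growth inhibition of human Saos-2 cells determined by a cell viability assay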
Description: SANGER: Inhibition of human Saos-2 cell growth in a cell viability assay.

T-24 = test: cells; type: functional, cell-based; settings: Homo sapiens;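 note: growth inhibition of T-24 cells, read out with a cell viability assay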
Description: SANGER: Inhibition of human T-24 cell growth in a cell viability assay.

5637 = test: cells; type: functional, cell-based; settings: Homo sapiens
Description: SANGER: Inhibition of human 5637 cell growth in a cell viability assay.

A673 = test: cells; type: functional, cell-based; settings: Homo sapiens;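 note: growth inhibition of human A673 cells, read out through a cell viability assay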
Description: SANGER: Inhibition of human A673 cell growth in a cell viability assay.

AGS = test: cells; type: functional, cell-based; settings: Homo sapiens;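 note: growth inhibition of AGS cells, determined with a cell viability assay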
Description: SANGER: Inhibition of human AGS cell growth in a cell viability assay.

BCPAP = test: cells; type: functional, cell-based; settings: Homo sapiens;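 note: growth inhibition of BCPAP cells, read out in a cell viability assay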
Description: SANGER: Inhibition of human BCPAP cell growth in a cell viability assay.

BHT-101 = test: cells; type: functional, cell-based; settings: Homo sapiens
Description: SANGER: Inhibition of human BHT-101 cell growth in a cell viability assay.

CAL-12T = test: cells; type: functional, cell-based, Homo sapiens;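 note: growth inhibition of human CAL-12T cells, read out with a cell viability assay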
Description: SANGER: Inhibition of human CAL-12T cell growth in a cell viability assay.

VM-CUB-1 = test: cells; type: functional, cell-based; settings: Homo sapiens;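 note: cell viability assay measuring growth inhibition of the human VM-CUB-1 cell line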
Description: SANGER: Inhibition of human VM-CUB-1 cell growth in a cell viability assay.

EB2 = test: cells; type: functional, cell-based; settings: Homo sapiens;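 note: growth inhibition of EB2 cells, read out with a cell viability assay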
Description: SANGER: Inhibition of human EB2 cell growth in a cell viability assay.

IST-SL2 = test: cells; type: functional, cell-based; settings: Homo sapiens;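 note: growth inhibition of human IST-SL2 cells, read out by a cell viability assay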
Description: SANGER: Inhibition of human IST-SL2 cell growth in a cell viability assay.

JIYOYE = test: cells; type: functional, cell-based; settings: Homo sapiens
Description: SANGER: Inhibition of human JiyoyeP-2003 cell growth in a cell viability assay.

MC-CAR = test: cells; type: functional, cell-based; settings: Homo sapiens;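 note: growth inhibition of the human MC-CAR cell line, read out by a cell viability assay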
Description: SANGER: Inhibition of human MC-CAR cell growth in a cell viability assay.

MHH-CALL-2 = test: cells; type: functional, cell-based; settings: Homo sapiens;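 note: growth inhibition of the cell line, read out in a cell viability assay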
Description: SANGER: Inhibition of human MHH-CALL-2 cell growth in a cell viability assay.

MONO-MAC-6 = test: cells; type: functional, cell-based; settings: Homo sapiens;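 note: cell viability assay measuring growth inhibition of human MONO-MAC-6 cells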
Description: SANGER: Inhibition of human MONO-MAC-6 cell growth in a cell viability assay.

MRK-nu-1 = test: cells; type: functional, cell-based; settings: Homo sapiens;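 note: cell viability assay measuring growth suppression of human MRK-nu-1 cells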
Description: SANGER: Inhibition of human MRK-nu-1 cell growth in a cell viability assay.

NCCIT = test: SANGER: Inhibition of human NCCIT cell growth in a cell viability assay.; type: functional, cell-based
NCI-H1417 = test: cells; type: functional, cell-based; settings: Homo sapiens;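 note: human NCI-H1417 cells, growth inhibition determined with a cell viability readout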
Description: SANGER: Inhibition of human NCI-H1417 cell growth in a cell viability assay.

NCI-H1522 = test: cells; type: functional, cell-based; settings: Homo sapiens;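 note: growth inhibition of NCI-H1522 cells, read out with a cell viability assay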
Description: SANGER: Inhibition of human NCI-H1522 cell growth in a cell viability assay.

NCI-H187 = test: cells; type: functional, cell-based; settings: Homo sapiens;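 note: growth inhibition of NCI-H187 cells, read out as cell viability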
Description: SANGER: Inhibition of human NCI-H187 cell growth in a cell viability assay.

NCI-H2081 = test: cells; type: functional, cell-based; settings: Homo sapiens;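 note: growth inhibition of human NCI-H2081 cells, read out with a cell viability assay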
Description: SANGER: Inhibition of human NCI-H2081 cell growth in a cell viability assay.

NCI-H719 = test: cells; type: functional, cell-based; settings: Homo sapiens
Description: SANGER: Inhibition of human NCI-H719 cell growth in a cell viability assay.

Raji = test: cells; type: functional, cell-based; settings: Homo sapiens
Description: SANGER: Inhibition of human Raji cell growth in a cell viability assay.

SR = test: cells; type: functional, cell-based; settings: Homo sapiens
Description: SANGER: Inhibition of human SR cell growth in a cell viability assay.

CAL-148 = test: cells; type: functional, cell-based; settings: Homo sapiens
Description: SANGER: Inhibition of human CAL-148 cell growth in a cell viability assay.

TE-15 = test: cells; type: functional, cell-based; settings: Homo sapiens
Description: SANGER: Inhibition of human TE-15 cell growth in a cell viability assay.

YT = test: cells; type: functional, cell-based; settings: Homo sapiens
Description: SANGER: Inhibition of human YT cell growth in a cell viability assay.

For `CCCS(=O)(=O)Nc1ccc(F)c(C(=O)c2c[nH]c3ncc(Cl)cc23)c1F` [PLX-4720], the IC50 (ChaGo-K-1) was > 10000 nM, the IC50 (Detroit 562) was > 10000 nM and the IC50 (EFM-19) was > 10000 nM. The IC50 (FTC-133) was > 10000 nM, the IC50 (G-401) was > 10000 nM and the IC50 (GAMG) was > 10000 nM. For the same compound, the IC50 (HCC1937) was > 10000 nM, the IC50 (HMV-2 cell line) was > 10000 nM and the IC50 (HN) was > 10000 nM. For the same compound, the IC50 (HOS) was > 10000 nM, the IC50 (HTC-C3) was 1660 nM and the IC50 (IGROV-1) was > 10000 nM. The IC50 (JEG-3) was > 10000 nM, the IC50 (KP-4) was 2310 nM and the IC50 (KYSE-150 cell line) was > 10000 nM. The IC50 (KYSE-180) was > 10000 nM, the IC50 (MDA-MB-453) was > 10000 nM and the IC50 (MFE-280) was > 10000 nM. For the same compound, the IC50 (MHH-ES-1) was > 10000 nM, the IC50 (MKN-28) was > 10000 nM and the IC50 (NCI-H1437) was > 10000 nM. For the same compound, the IC50 (NCI-H1755) was > 10000 nM, the IC50 (NCI-H1793) was > 10000 nM and the IC50 (NCI-H2030) was > 10000 nM. The IC50 (NCI-H358) was 2920 nM, the IC50 (NCI-H520) was > 10000 nM and the IC50 (NCI-H522) was > 10000 nM. The IC50 (NCI-H630) was > 10000 nM, the IC50 (NCI-H727) was > 10000 nM and the IC50 (NUGC-3) was > 10000 nM. The IC50 (PC-3) was > 10000 nM, the IC50 (SBC-5) was > 10000 nM and the IC50 (SCC-25) was > 10000 nM. For the same compound, the IC50 (SKG-IIIa) was > 10000 nM, the IC50 (SW1463) was > 10000 nM and the IC50 (SW1573) was > 10000 nM. The IC50 (SW756) was > 10000 nM, the IC50 (SW837) was > 10000 nM and the IC50 (SAOS-2) was > 10000 nM. The IC50 (T-24) was > 10000 nM, the IC50 5637 was > 10000 nM and the IC50 (A673) was > 10000 nM. The IC50 (AGS) was > 10000 nM, the IC50 (BCPAP) was 7220 nM and the IC50 (BHT-101) was 707 nM. For the same compound, the IC50 (CAL-12T; Homo sapiens, CAL-12T) was > 10000 nM and the IC50 (VM-CUB-1) was > 10000 nM.

In the case of `CC(C)=CC[C@@H](O)C1=CC(=O)c2c(O)ccc(O)c2C1=O` [SHIKONIN], the IC50 (ChaGo-K-1) is reported as 657 nM, the IC50 (Detroit 562) is reported as > 16000 nM and the IC50 (EB2) is reported as 311 nM. The IC50 (EFM-19) was 212 nM, the IC50 (FTC-133) was 5740 nM and the IC50 (G-401) was 235 nM. For the same compound, the IC50 (GAMG) was 1710 nM, the IC50 (HCC1937) was 1660 nM and the IC50 (HMV-2 cell line) was 56.4 nM. For the same compound, the IC50 (HN) was 1370 nM, the IC50 (HOS) was 186 nM and the IC50 (HTC-C3) was 542 nM. For the same compound, the IC50 (IGROV-1) was 55.6 nM, the IC50 (IST-SL2) was 200 nM and the IC50 (JEG-3) was 3170 nM. For the same compound, the IC50 (JIYOYE) was 1390 nM, the IC50 (KP-4) was 501 nM and the IC50 (KYSE-150 cell line) was 902 nM. The IC50 (KYSE-180) was 1010 nM, the IC50 (MC-CAR) was 814 nM and the IC50 (MDA-MB-453) was 2520 nM. For the same compound, the IC50 (MFE-280) was 4950 nM, the IC50 (MHH-CALL-2) was 715 nM and the IC50 (MHH-ES-1) was 689 nM. It also gave an IC50 (MKN-28) of 617 nM, an IC50 (MONO-MAC-6) of 245 nM and an IC50 (MRK-nu-1) of 102 nM. For the same compound, the IC50 (NCCIT) was 517 nM, the IC50 (NCI-H1417) was 816 nM and the IC50 (NCI-H1437) was 1560 nM. For the same compound, the IC50 (NCI-H1522) was 519 nM, the IC50 (NCI-H1755) was > 16000 nM and the IC50 (NCI-H1793) was > 16000 nM. The IC50 (NCI-H187) was 2360 nM, the IC50 (NCI-H2030) was 563 nM and the IC50 (NCI-H2081) was 1520 nM. For the same compound, the IC50 (NCI-H358) was 658 nM, the IC50 (NCI-H520) was 1350 nM and the IC50 (NCI-H522) was 560 nM. The IC50 (NCI-H630) was 1300 nM, the IC50 (NCI-H719) was 2610 nM and the IC50 (NCI-H727) was 638 nM. The IC50 (NUGC-3) was 765 nM, the IC50 (PC-3) was 859 nM and the IC50 (Raji) was 631 nM. It also gave an IC50 (SBC-5) of 215 nM, an IC50 (SCC-25) of 383 nM and an IC50 (SKG-IIIa) of 4390 nM. The IC50 (SR) was 141 nM, the IC50 (SW1463) was 8610 nM and the IC50 (SW1573) was 372 nM. For the same compound, the IC50 (SW756) was 762 nM, the IC50 (SW837) was > 16000 nM and the IC50 (SAOS-2) was 2370 nM. For the same compound, the IC50 (T-24) was 2460 nM, the IC50 5637 was > 16000 nM and the IC50 (A673) was 1220 nM. For the same compound, the IC50 (AGS) was 613 nM, the IC50 (BCPAP) was 923 nM and the IC50 (BHT-101) was 1250 nM. It also gave an IC50 (CAL-12T; Homo sapiens, CAL-12T) of 1900 nM, an IC50 (CAL-148) of 677 nM and an IC50 (TE-15) of 400 nM. The IC50 (VM-CUB-1) was 1030 nM and the IC50 (YT) was 384 nM.

For `O=c1cc(N2CCOCC2)oc2c(-c3cccc4c3sc3ccccc34)cccc12`, the IC50 (ChaGo-K-1) was > 2000 nM, the IC50 (Detroit 562) was > 2000 nM and the IC50 (EFM-19) was > 2000 nM. The IC50 (FTC-133) was > 2000 nM, the IC50 (G-401) was > 2000 nM and the IC50 (GAMG) was > 2000 nM. For the same compound, the IC50 (HCC1937) was > 2000 nM, the IC50 (HMV-2 cell line) was > 2000 nM and the IC50 (HN) was > 2000 nM. The IC50 (HOS) was > 2000 nM, the IC50 (HTC-C3) was > 2000 nM and the IC50 (IGROV-1) was > 2000 nM. For the same compound, the IC50 (JEG-3) was > 2000 nM, the IC50 (KP-4) was > 2000 nM and the IC50 (KYSE-150 cell line) was > 2000 nM. The IC50 (KYSE-180) was > 2000 nM, the IC50 (MDA-MB-453) was > 2000 nM and the IC50 (MFE-280) was > 2000 nM. For the same compound, the IC50 (MHH-ES-1) was > 2000 nM, the IC50 (MKN-28) was > 2000 nM and the IC50 (NCI-H1437) was > 2000 nM. The IC50 (NCI-H1755) was > 2000 nM, the IC50 (NCI-H1793) was 1460 nM and the IC50 (NCI-H2030) was > 2000 nM. The IC50 (NCI-H358) was > 2000 nM, the IC50 (NCI-H520) was > 2000 nM and the IC50 (NCI-H522) was > 2000 nM. The IC50 (NCI-H630) was > 2000 nM, the IC50 (NCI-H727) was > 2000 nM and the IC50 (NUGC-3) was > 2000 nM. The IC50 (PC-3) was > 2000 nM, the IC50 (SBC-5) was > 2000 nM and the IC50 (SCC-25) was > 2000 nM. The IC50 (SKG-IIIa) was > 2000 nM, the IC50 (SW1463) was > 2000 nM and the IC50 (SW1573) was > 2000 nM. The IC50 (SW756) was > 2000 nM, the IC50 (SW837) was > 2000 nM and the IC50 (SAOS-2) was > 2000 nM. The IC50 (T-24) was > 2000 nM, the IC50 5637 was > 2000 nM and the IC50 (A673) was > 2000 nM. For the same compound, the IC50 (AGS) was > 2000 nM, the IC50 (BCPAP) was > 2000 nM and the IC50 (BHT-101) was > 2000 nM. The IC50 (CAL-12T; cal-12t) was > 2000 nM and the IC50 (VM-CUB-1) was > 2000 nM.
